The target of test [1] is T1, soluble epoxide hydrolase (sEH) (Homo sapiens, UniProt P34913).
T1 sequence (P34913 1-555): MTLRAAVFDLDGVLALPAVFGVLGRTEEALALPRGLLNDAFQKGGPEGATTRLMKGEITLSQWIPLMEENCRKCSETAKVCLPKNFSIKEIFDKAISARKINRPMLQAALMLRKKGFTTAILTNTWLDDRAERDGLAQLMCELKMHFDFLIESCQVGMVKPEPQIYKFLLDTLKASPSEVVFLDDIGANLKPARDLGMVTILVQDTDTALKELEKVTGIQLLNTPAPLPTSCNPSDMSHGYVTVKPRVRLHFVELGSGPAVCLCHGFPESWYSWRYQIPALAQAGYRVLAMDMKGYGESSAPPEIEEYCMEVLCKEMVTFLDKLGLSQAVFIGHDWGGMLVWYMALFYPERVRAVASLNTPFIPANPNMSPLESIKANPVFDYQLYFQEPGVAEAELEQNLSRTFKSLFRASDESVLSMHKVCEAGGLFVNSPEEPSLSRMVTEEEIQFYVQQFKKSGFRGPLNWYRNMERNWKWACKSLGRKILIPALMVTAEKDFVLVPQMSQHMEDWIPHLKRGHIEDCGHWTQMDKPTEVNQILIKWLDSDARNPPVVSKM
In words: in vitro biochemical activity test, sEH enzyme inhibition with EET substrate (LC-MS). The conditions noted are these: 90 min pre-incubation at room temperature, 60 min reaction. As for the experimental part: This example relates to the relationship between the structure and activity of (hetero)aryl imidazole compounds containing an aromatic substituent. Specifically, the biochemical activity of the (hetero)aryl imidazole compounds containing an aromatic substituent described in Example 1 as sEH enzyme inhibitors was evaluated by in vitro activity test experiments.
The experimental procedures for evaluating in vitro biochemical activity were described below.
The substrate used in the evaluation experiment was epoxyeicosatrienoic acid (EET). The solutions used in the evaluation experiments were Bis/Tris HCl 25 mM pH 7.0, Bis/Tris HCl 25 mM pH 7.0 containing 0.1 mg/mL BSA was used as buffer A, and Bis/Tris HCl 25 mM pH 7.0 containing 36.3 mM ZnSO4 was used as buffer B.
The specific steps of the evaluation experiment were as follows. 79 μL of buffer A was added to each well in a black 96-well plate and then 1 μL solution of the aromatic substituent-containing (hetero)aryl imidazole compound was added. Then, 10 μL sEH (1 μM) buffer A solution was added to the wells. After pre-incubation at room temperature for 90 min, 10 μL EET (10 μM) buffer A solution was added to trigger the reaction. After the mixture was allowed to react […] for 60 min, 15 μL buffer B and 180 μL acetonitrile were added to quench the reaction, followed by high-speed centrifugation and filtration for later use.
LC-MS was used to detect the concentration of EET in the samples. The final IC50 was calculated based on three independent experiments using Graphpad Prism software.

Test [2] addresses T1, soluble epoxide hydrolase (sEH). In words: PHOME assay activity test, sEH enzyme inhibition (fluorescence). In kind it is biochemical. The settings on record: PHOME 5 μM, pH 7.0; 10 min pre-incubation; test compound concentration range 20 nM-0.082 nM. As to the method: This example relates to the relationship between the structure and activity of (hetero)aryl imidazole compounds containing an aromatic substituent. Specifically, the biochemical activity of the (hetero)aryl imidazole compounds containing an aromatic substituent described herein as sEH enzyme inhibitors was evaluated by PHOME assay activity test experiment. The synthesis of the substrates and the test methods required for this test were all based on known literature reports (Analytical Biochemistry 2005, 343, 66-75).
The sEH enzyme activity inhibition experiment was performed in a low binding 96-well plate. The reaction system was 100 μL 25 mM Bis-Tris, pH 7.0, 0.1 mg/mL BSA buffer. The experimental steps of PHOME assay activity test were as follows.
First, a sEH enzyme solution with a final concentration of […] was mixed with compounds of different concentrations (test compound concentration range 20 nM-0.082 nM), and then pre-incubated on a shaker at room temperature for 10 min. The reaction was triggered by adding Phome fluorescent substrate at a final concentration of 5 μM and immediately placed in a Perkin Elmer microplate reader for dynamic monitoring for 1 hour at an excitation wavelength of 330 nm and an emission wavelength of 465 nm, with fluorescence readings at intervals of 1 minute. Graphpad Prism 9.0 software was used to calculate the slope of the fluorescence value increase in each well within 20 minutes, and the slope was used to calibrate the enzyme activity to calculate the inhibition rate of the compound on sEH enzyme activity under different concentration conditions. Finally, Graphpad Prism 9 was used to plot and calculate IC50 values.
The inhibitory activity IC50 values of some compounds against soluble epoxide hydrolase obtained by PHOME assay activity evaluation experiment are shown in Table 4.

The values that follow come from US20260297065A1, “AROMATIC SUBSTITUENT-CONTAINING (HETERO) ARYL-IMIDAZOLE COMPOUND, AND PREPARATION METHOD THEREFOR AND USE THEREOF” (OPEN SOURCE THERAPEUTICS, priority 2022, published 2026).

As usually defined, the IC50 is the point on the concentration scale where inhibition reaches its midpoint. Lower therefore signals greater potency.

`Nc1ncc(-c2cc3[nH]c(-c4cccc(C(F)(F)F)c4)nc3c(F)c2F)c(C(F)F)n1` [Compound 80, 5-(2-(3-(trifluoromethyl)phen-yl)-4,5-difluoro-1H-benzo[d]imidazol-6-yl)-4-(difluoro-methyl)pyrimidine-2-amine]: the results for the IC50 in test [1] and in test [2] were 0.45 nM and 0.65 nM, respectively.
As to `Nc1ncc(-c2cc3[nH]c(-c4ccc(F)c(C(F)(F)F)c4)nc3c(F)c2F)c(C(F)F)n1` [Compound 81, 5-(2-(3-(trifluoromethyl)-4-fluorophenyl)-4,5-difluoro-1H-benzo[d]imidazol-6-yl)-4-(difluoromethyl)pyrimidine-2-amine], the IC50 in test [1] was determined as 0.15 nM.
As for `COCCNc1ncc(-c2cc3[nH]c(-c4ccc(C(F)(F)F)cc4)nc3c(F)c2F)c(C(F)F)n1` [Compound 88, 5-(2-(4-(trifluoromethyl)phen-yl)-4,5-difluoro-1H-benzo[d]imidazol-6-yl)-4-(difluoro-methyl)-N-(2-methoxyethyl)-pyrimidine-2-amine], in test [2], the half-inhibitory concentration (IC50) came to 0.65 nM.
In turn, `Nc1ncc(-c2cc3[nH]c(-c4ccc5c(c4)OC(F)(F)O5)nc3c(F)c2F)c(C(F)F)n1` [Compound 89, 5-(2-(2,2-difluorobenzo[d][1,3]dioxol-5-yl)-4,5-difluoro-1H-benzo[d]imidazol-6-yl)-4-(difluoromethyl)pyrimidine-2-amine] had an IC50 in test [2] of 0.35 nM. This IC50 is about 1.9-fold lower than that of the compound before.
The same measure, in the same setting: the result for `Nc1ncc(-c2cc3[nH]c(-c4ccc(OC(F)(F)F)c(F)c4)nc3c(F)c2F)c(C(F)F)n1` [Compound 90, 5-difluoro-1H-benzo[d]5-(2-(4-(trifluoromethoxy)-3-fluoro-phenyl)-4,5-difluoro-1H-benzo [d]imidazol-6-yl)-4-(difluoro-methyl)pyrimidine-2-amine] reads 0.48 nM; that for `Fc1c(-c2cnc(NC3COC3)nc2C(F)F)cc2[nH]c(-c3ccc(C(F)(F)F)cc3)nc2c1F` [Compound 91, 5-(2-(4-(trifluoromethyl)phen-yl)-4,5-difluoro-1H-benzo[d]imidazol-6-yl)-4-(difluoro-methyl)-N-(oxetan-3-yl)pyr-imidine-2-amine], 0.61 nM.
On the same count and under the same terms, the figure for `CN(C)c1nc(N)ncc1-c1cc2[nH]c(-c3ccc(C(F)(F)F)cc3)nc2c(F)c1F` [Compound 92, 5-(2-(4-(trifluoromethyl)phen-yl)-4,5-difluoro-1H-benzo[d]imidazol-6-yl)-N4,N4-dimeth-ylpyrimidine-2,4-diamine] is below 0.082 nM; for `Cc1nc(N2CC(O)C2)ncc1-c1cc2[nH]c(-c3ccc(C(F)(F)F)cc3)nc2c(F)c1F` [Compound 93, 1-(4-methyl-5-(2-(4-(trifluoro-methyl)phenyl)-4,5-difluoro-1H-benzo[d]imidazol-6-yl)-pyrimidine-2-yl)azetidin-3-ol] it is below 0.082 nM; for `Nc1ncc(-c2cc3[nH]c(-c4ccc(F)c(OC(F)(F)F)c4)nc3c(F)c2F)c(C(F)F)n1` [Compound 94, 5-(2-(3-(trifluoromethoxy)-4-fluorophenyl)-4,5-difluoro-1H-benzo[d]imidazol-6-yl)-4-(difluoromethyl)pyrimidine-2-amine] it is 2.54 nM.
Same read-out and setting: the result for `N#Cc1nc(N)ncc1-c1cc2[nH]c(-c3ccc(C(F)(F)F)cc3)nc2c(F)c1F` [Compound 95, 2-amino-5-(2-(4-(trifluoro-methyl)phenyl)-4,5-difluoro-1H-benzo[d]imidazol-6-yl)-pyrimidine-4-carbonitrile] reads below 0.082 nM.
In turn, `Cc1nc(N2CC(C(=O)O)C2)ncc1-c1cc2[nH]c(-c3ccc(C(F)(F)F)cc3)nc2c(F)c1F` [Compound 96, 1-(4-methyl-5-(2-(4-(trifluoro-methyl)phenyl)-4,5-difluoro-1H-benzo[d]imidazol-6-yl)-pyrimidine-2-yl)azetidine-3-carboxylic acid] returned an IC50 in test [2] of 0.14 nM.
`Cc1nc(CN2CCOCC2)ncc1-c1cc2[nH]c(-c3ccc(C(F)(F)F)cc3)nc2c(F)c1F` [Compound 97, 4-((4-methyl-5-(2-(4-(trifluoro-methyl)phenyl)-4,5-difluoro-1H-benzo[d]imidazol-6-yl)-pyrimidine-2-yl)methyl)mor-pholine] showed an IC50 in test [2] of 0.092 nM.
On the same count and under the same terms, the result for `CC(=O)N1CCN(Cc2ncc(-c3cc4[nH]c(-c5ccc(C(F)(F)F)cc5)nc4c(F)c3F)c(C)n2)CC1` [Compound 98, 1-(4-((4-methyl-5-(2-(4-(trifluoromethyl)phenyl)-4,5-difluoro-1H-benzo[d]imid-azol-6-yl)pyrimidine-2-yl)-methyl)piperazin-1-yl)ethan-1-one] reads 0.11 nM.
Still for that read-out and setting: the figure for `Nc1ncc(-c2cc3[nH]c(-c4ccc(C(F)(F)F)cc4)nc3c(F)c2F)c(C(=O)O)n1` [Compound 99, 2-amino-5-(2-(4-(trifluoro-methyl)phenyl)-4,5-difluoro-1H-benzo[d]imidazol-6-yl)-pyrimidine-4-carboxylic acid] is 41.6 nM; for `Cc1nc(N)ncc1-c1cc2[nH]c(-c3ccc4oc(=O)n(C)c4c3)nc2c(F)c1F` [Compound 100, 3-methyl-5-(6-(4-methyl-2-aminopyrimid-5-yl)-4,5-difluoro-1H-benzo[d]imid-azol-2-yl)benzo[d]oxazol-2(3H)-one] it is 10.1 nM.
In the case of `Cc1nc(N)ncc1-c1cc2[nH]c(-c3ccc(C(F)(F)F)cn3)nc2c(F)c1F` [Compound 101, 4-methyl-5-(2-(5-(trifluoro-methyl)pyrid-2-yl)-4,5-difluoro-1H-benzo[d]imid-azol-6-yl)pyrimidine-2-amine], half-maximal inhibition in test [2] (IC50) required 0.35 nM.
Turning to `Cc1nc(N)ncc1-c1nc2[nH]c(-c3ccc(C(F)(F)F)cc3)nc2cc1F` [Compound 102, 4-methyl-5-(2-(4-(trifluoromethyl)phenyl)-6-fluoro-3H-imidazo[4,5-b]pyridin-5-yl)-pyrimidine-2-amine], the IC50 in test [2] is 1.45 nM.
The same measure, in the same setting: the result for `Cc1cc(N)nnc1-c1cc2[nH]c(-c3ccc(C(F)(F)F)cc3)nc2c(F)c1F` [Compound 103, 5-methyl-6-(2-(4-(trifluoro-methyl)phenyl)-4,5-difluoro-1H-benzo[d]imidazol-6-yl)-pyridazin-3-amine] reads 0.36 nM; that for `Cc1nc(N2CC(O)C2)ncc1-c1cc2[nH]c(-c3ccc(S(=O)(=O)N(C)C)c(F)c3)nc2c(F)c1F` [Compound 104, 4-(6-(4-methyl-2-(3-hydroxy-azetidin-1-yl)pyrimid-5-yl)-4,5-difluoro-1H-benzo[d]imidazol-2-yl)-2-fluoro-N,N-dimethylbenzenesulfonamide], above 20 nM.
On the same count and under the same terms, the result for `Cc1nc(N2CC(C(=O)O)C2)ncc1-c1cc2[nH]c(-c3ccc(S(=O)(=O)N(C)C)c(F)c3)nc2c(F)c1F` [Compound 105, 1-(4-methyl-5-(2-(3-fluoro-4-(N,N-dimethylsulfamoyl)phen-yl)-4,5-difluoro-1H-benzo[d]imidazol-6-yl)pyrimidine-2-yl)azetidine-3-carboxylic acid] reads above 20 nM.
